Active and inactive are the calls of the source. The calls are words filed in the database; no cut-off is given here.
Columns and labels:
[1] = Inhibition of amyloid beta (1 to 42) self aggregation at 20 uM after 48 hrs by thioflavin T fluorescence assay
[2] = target: Acetylcholinesterase (Electrophorus electricus, UniProt O42275)
Description: Inhibition of electric eel AChE using acetylcholine as substrate by Ellman's method

[3] = target: Cholinesterase (Equus caballus, UniProt P81908)
Description: Inhibition of equine serum BuChE using butyrylcholine as substrate by Ellman's method

[4] = target: Acetylcholinesterase (Electrophorus electricus) (UniProt O42275); experiment: Mixed-type inhibition of electric eel AChE using acetylcholine as substrate after 15 mins by Lineweaver-Burk plot analysis
Chain of Acetylcholinesterase (Electrophorus electricus) (O42275 24-633 limits assumed): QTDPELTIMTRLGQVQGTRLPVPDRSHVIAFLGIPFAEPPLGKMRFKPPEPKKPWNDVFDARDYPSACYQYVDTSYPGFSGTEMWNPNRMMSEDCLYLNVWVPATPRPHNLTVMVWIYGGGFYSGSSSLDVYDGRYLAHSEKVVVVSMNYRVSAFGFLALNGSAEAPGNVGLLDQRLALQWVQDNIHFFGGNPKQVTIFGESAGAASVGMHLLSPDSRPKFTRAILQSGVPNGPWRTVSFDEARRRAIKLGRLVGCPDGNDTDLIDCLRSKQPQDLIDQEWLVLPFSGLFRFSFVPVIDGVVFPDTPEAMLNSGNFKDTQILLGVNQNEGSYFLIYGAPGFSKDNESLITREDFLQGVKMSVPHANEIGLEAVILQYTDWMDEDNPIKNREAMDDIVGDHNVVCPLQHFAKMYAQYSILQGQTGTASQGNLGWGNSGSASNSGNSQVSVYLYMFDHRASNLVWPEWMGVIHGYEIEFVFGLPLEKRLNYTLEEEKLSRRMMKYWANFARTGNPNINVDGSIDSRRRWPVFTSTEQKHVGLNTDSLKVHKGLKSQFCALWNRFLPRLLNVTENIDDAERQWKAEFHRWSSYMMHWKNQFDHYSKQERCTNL

[5] = target: Acetylcholinesterase (Electrophorus electricus) (UniProt O42275); experiment: Ratio of IC50 for tarcine to compound for electric eel AChE using acetylcholine as substrate by Ellman's method

Chain of Acetylcholinesterase (O42275 whole entry): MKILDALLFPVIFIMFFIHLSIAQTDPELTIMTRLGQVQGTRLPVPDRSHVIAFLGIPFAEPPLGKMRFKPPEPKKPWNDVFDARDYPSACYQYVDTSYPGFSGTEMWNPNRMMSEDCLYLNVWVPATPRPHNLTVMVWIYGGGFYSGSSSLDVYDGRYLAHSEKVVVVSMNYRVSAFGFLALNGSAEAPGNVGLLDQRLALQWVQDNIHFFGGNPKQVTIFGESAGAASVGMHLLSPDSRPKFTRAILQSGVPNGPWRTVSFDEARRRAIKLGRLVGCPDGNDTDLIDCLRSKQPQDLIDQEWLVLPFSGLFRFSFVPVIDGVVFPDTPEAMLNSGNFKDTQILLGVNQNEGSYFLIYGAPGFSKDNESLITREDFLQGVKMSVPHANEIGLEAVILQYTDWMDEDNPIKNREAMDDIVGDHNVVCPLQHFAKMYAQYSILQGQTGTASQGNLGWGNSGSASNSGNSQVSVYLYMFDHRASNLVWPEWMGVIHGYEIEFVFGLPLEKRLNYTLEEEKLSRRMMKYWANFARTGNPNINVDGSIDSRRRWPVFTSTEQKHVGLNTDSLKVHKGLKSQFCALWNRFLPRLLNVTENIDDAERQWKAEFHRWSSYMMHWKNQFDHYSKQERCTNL
Chain of Cholinesterase (P81908 whole entry): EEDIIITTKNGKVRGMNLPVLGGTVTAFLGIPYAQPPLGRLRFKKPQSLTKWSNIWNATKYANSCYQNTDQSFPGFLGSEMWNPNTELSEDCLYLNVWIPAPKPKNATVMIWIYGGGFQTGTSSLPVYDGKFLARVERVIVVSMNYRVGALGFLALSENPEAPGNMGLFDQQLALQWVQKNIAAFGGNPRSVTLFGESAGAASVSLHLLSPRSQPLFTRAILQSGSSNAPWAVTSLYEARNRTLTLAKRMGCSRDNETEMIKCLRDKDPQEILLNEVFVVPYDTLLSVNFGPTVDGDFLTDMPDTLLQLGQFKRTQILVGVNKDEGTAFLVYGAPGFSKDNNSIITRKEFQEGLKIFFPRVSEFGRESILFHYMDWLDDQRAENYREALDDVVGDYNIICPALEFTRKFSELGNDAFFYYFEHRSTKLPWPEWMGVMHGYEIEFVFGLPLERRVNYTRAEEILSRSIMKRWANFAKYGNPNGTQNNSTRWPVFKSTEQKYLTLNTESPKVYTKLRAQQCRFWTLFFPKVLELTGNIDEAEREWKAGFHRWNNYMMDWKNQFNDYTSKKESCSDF

c1ccc2sc(-c3ccc(OCCCCCCNc4c5c(nc6ccccc46)CCCC5)cc3)nc2c1
inhibition [1]: 41.9% | IC50 [2]: 0.093 µM | IC50 [3]: 0.082 µM

c1ccc2sc(-c3ccc(OCCCCCNc4c5c(nc6ccccc46)CCCC5)cc3)nc2c1
inhibition [1]: 40.7% | IC50 [2]: 0.04 µM | IC50 [3]: 0.171 µM

COc1ccc2cc3[n+](cc2c1OCCOc1ccc(-c2nc4ccccc4o2)cc1)CCc1cc2c(cc1-3)OCO2
IC50 [2]: 3.3 µM

c1ccc2oc(-c3ccc(OCCCCNc4c5c(nc6ccccc46)CCCC5)cc3)cc2c1
inhibition [1]: 46.3% | IC50 [2]: 0.201 µM | IC50 [3]: 0.238 µM

c1ccc2sc(-c3ccc(OCCCCNc4c5c(nc6ccccc46)CCCC5)cc3)nc2c1
inhibition [1]: 37.8% | IC50 [2]: 0.105 µM | IC50 [3]: 0.186 µM

COc1ccc2cc3[n+](cc2c1OCCCNC(=O)c1cc2ccccc2o1)CCc1cc2c(cc1-3)OCO2
inhibition [1]: 69.1% | IC50 [2]: 1.94 µM | IC50 [3]: 1.54 µM

COc1ccc2cc3[n+](cc2c1OCCCOc1ccc(-c2nc4ccccc4o2)cc1)CCc1cc2c(cc1-3)OCO2
IC50 [2]: 2.12 µM | IC50 [3]: 0.639 µM

c1ccc2sc(-c3ccc(OCCCNc4c5c(nc6ccccc46)CCCC5)cc3)nc2c1
inhibition [4]: Active | inhibition [1]: 51.8% | IC50 [2]: 0.017 µM | Ratio IC50 [5]: 18 | IC50 [3]: 0.122 µM

COc1ccc2cc3[n+](cc2c1OC)CCc1cc2c(cc1-3)OCO2
inhibition [1]: 36.3%

COc1ccc2cc3[n+](cc2c1OCCOc1ccc(-c2nc4ccccc4s2)cc1)CCc1cc2c(cc1-3)OCO2
IC50 [2]: 1.64 µM | IC50 [3]: 0.175 µM

c1ccc2oc(-c3ccc(OCCCNc4c5c(nc6ccccc46)CCCC5)cc3)nc2c1
inhibition [1]: 57.6% | IC50 [2]: 0.475 µM | IC50 [3]: 0.352 µM

c1ccc2oc(-c3ccc(OCCCNc4c5c(nc6ccccc46)CCCC5)cc3)cc2c1
inhibition [1]: 62.8% | IC50 [2]: 0.058 µM | IC50 [3]: 0.156 µM

c1ccc2oc(-c3ccc(OCCCCNc4c5c(nc6ccccc46)CCCC5)cc3)nc2c1
inhibition [1]: 33.2% | IC50 [2]: 0.947 µM | IC50 [3]: 0.207 µM

COc1ccc2cc3[n+](cc2c1OCCCOc1ccc(-c2nc4ccccc4s2)cc1)CCc1cc2c(cc1-3)OCO2
inhibition [1]: 79.2% | IC50 [2]: 1.48 µM | IC50 [3]: 0.587 µM

COc1ccc2cc3[n+](cc2c1OCCCOc1ccc(-c2cc4ccccc4o2)cc1)CCc1cc2c(cc1-3)OCO2
inhibition [1]: 84.6% | IC50 [2]: 1.92 µM | IC50 [3]: 0.99 µM

COc1ccc2cc3[n+](cc2c1OCCCNC(=O)c1cc2ccccc2[nH]1)CCc1cc2c(cc1-3)OCO2
inhibition [1]: 73.5% | IC50 [2]: 0.976 µM | IC50 [3]: 2.19 µM

COc1ccc2cc3[n+](cc2c1OCCCOc1ccc(-c2cc4ccccc4[nH]2)cc1)CCc1cc2c(cc1-3)OCO2
IC50 [2]: 0.774 µM | IC50 [3]: 0.711 µM

COc1ccc2cc3[n+](cc2c1OCCOc1ccc(-c2cc4ccccc4o2)cc1)CCc1cc2c(cc1-3)OCO2
IC50 [2]: 3.59 µM

COc1ccc2cc3[n+](cc2c1OCCOc1ccc(-c2cc4ccccc4[nH]2)cc1)CCc1cc2c(cc1-3)OCO2
IC50 [2]: 1.07 µM

Reference: ChEMBL document CHEMBL2021783, “Inhibition of cholinesterase activity and amyloid aggregation by berberine-phenyl-benzoheterocyclic and tacrine-phenyl-benzoheterocyclic hybrids” (Bioorg Med Chem, 2012)
